Measured values taken from ChEMBL document CHEMBL1131365, “Identification and SAR for a selective, nonpeptidyl thrombin inhibitor” (Bioorg Med Chem Lett, 1998).

Key:
Prothrombin = Prothrombin (Homo sapiens, UniProt P00734); assay: Compound was evaluated for its inhibitory activity against human thrombin
Serine protease 1 = Serine protease 1 (Homo sapiens, UniProt P07477); assay: Compound was evaluated for its inhibitory activity against trypsin
Serine protease 1, sequence (P07477 whole entry): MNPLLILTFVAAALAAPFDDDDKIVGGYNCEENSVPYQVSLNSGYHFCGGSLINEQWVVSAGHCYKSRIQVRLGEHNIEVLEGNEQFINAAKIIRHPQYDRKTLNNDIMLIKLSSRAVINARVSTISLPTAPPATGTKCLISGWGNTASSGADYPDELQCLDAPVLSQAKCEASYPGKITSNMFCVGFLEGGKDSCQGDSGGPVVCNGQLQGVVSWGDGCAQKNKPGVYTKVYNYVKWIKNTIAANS

Ki (Prothrombin) [µM] | Ki (Serine protease 1) [µM] | Structure (SMILES)
> 500 | – | c1ccc(COc2ccc(C[n+]3ccccc3)cc2)cc1
> 10 | > 10 | Nc1ccc(Cc2ccc(OCc3ccccc3)cc2)cc1
581 | – | NC1CCN(Cc2ccc(OCc3ccccc3)cc2)CC1
0.16 | 16 | Nc1cc[n+](Cc2ccc(OC(CCc3ccccc3)c3ccccc3)cc2)cc1 (stereo unspecified)
1.3 | 77 | c1ccc(C(Oc2ccc(CNc3ccncc3)cc2)c2ccccc2)cc1
0.7 | 77 | Nc1cc[n+](Cc2ccc(OCc3ccccc3)cc2)cc1
4.7 | 233 | c1ccc(COc2ccc(CNc3ccncc3)cc2)cc1
0.058 | 517 | Nc1cc[n+](Cc2ccc(OC(c3ccccc3)c3ccccc3)cc2)cc1
7.9 | 568 | c1ccc(COc2ccc(CCNc3ccncc3)cc2)cc1
